According to patent publication US20110281896A1, “OPTICALLY PURE QUINAZOLINE COMPOUNDS” (Jiangsu Hansoh Pharmaceutical Co. Ltd, priority 2009, published 2011):

Assays:
A431 = assay: Antitumor activity in vitro, SRB cell proliferation inhibition; assay type: cell-based; settings: 72 h incubation, Logit method
Method: (§1) Evaluation of Antitumor Activity In Vitro
(§2) Cell Strains: A431; MCF-7
(§3) Experiment Design: Cells were incubated with different concentrations of compounds for 72 hours. The inhibition of cell proliferation by the compounds was evaluated by SRB, followed by calculation of the inhibition rate. Then, value of IC50 was calculated by using-Logit method base on the inhibition rate and used to compare in vitro antitumor activity of the compounds.
(§4) Method for Calculating the Inhibition Rate: Inhibition rate (%)=(OD value of control group−OD value of drug group)/OD value of control group×100%

MCF-7 = assay: as above; assay type: cell-based; settings: 72 h incubation, Logit method
Method: as §1, §2, §3, §4

[1] = Homo sapiens, A-431, A431 cells
[2] = Homo sapiens, MCF7, MCF-7 cells

IC50 (A431; [1]) [µM] | IC50 (MCF-7; [2]) [µM] | IC50 (A431; A431 cells) [µM] | IC50 (MCF-7; MCF-7 cells) [µM] | SMILES
0.422 | 9.34 |  |  | CS(=O)(=O)C[C@@H](N)c1ccc(-c2ccc3ncnc(Nc4ccc(OCc5cccc(F)c5)c(Cl)c4)c3c2)o1 [Compound 92, (S)—N-(4-(3-fluorobenzyl-oxy)-3-chlorophenyl)-6-(5-(1-(amino)-2-(methylsulfonyl)ethyl)furan-2-yl)quinazolin-4-amine]
 |  | 0.46 | 8.86 | CN[C@H](CS(C)(=O)=O)c1ccc(-c2ccc3ncnc(Nc4ccc(OCc5cccc(F)c5)c(Cl)c4)c3c2)o1 [Compound 93, (S)—N-(4-(3-fluorobenzyl-oxy)-3-chlorphenyl)-6-(5-(1-(methylamino)-2-(methylsulfonyl)ethyl)furan-2-yl)quinazolin-4-amine]
0.652 | 7.85 |  |  | CCN[C@H](CS(C)(=O)=O)c1ccc(-c2ccc3ncnc(Nc4ccc(OCc5cccc(F)c5)c(Cl)c4)c3c2)o1 [Compound 94, (S)—N-(4-(3-fluorobenzyl-oxy)-3-chlorophenyl)-6-(5-(1-(ethylamino)-2-(methylsulfonyl)ethyl)furan-2-yl)quinazolin-4-amine]
0.453 | 7.9 |  |  | CCCN[C@H](CS(C)(=O)=O)c1ccc(-c2ccc3ncnc(Nc4ccc(OCc5cccc(F)c5)c(Cl)c4)c3c2)o1 [Compound 95, (S)—N-(4-(3-fluorobenzyl-oxy)-3-chlorophenyl)-6-(5-(1-(propyl-amino)-2-(methylsulfonyl)ethyl)furan-2-yl)quinazolin-4-amine]
0.578 | 6.7 |  |  | CN(C1CC1)[C@H](CS(C)(=O)=O)c1ccc(-c2ccc3ncnc(Nc4ccc(OCc5cccc(F)c5)c(Cl)c4)c3c2)o1 [Compound 96, (S)—N-(4-(3-fluorobenzyl-oxy)-3-chlorophenyl)-6-(5-(1-(cyclopropyl-methyl-amino)-2-(methylsulfonyl)ethyl)furan-2-yl)quinazolin-4-amine]
0.677 | 7.66 |  |  | CCN(CC)[C@H](CS(C)(=O)=O)c1ccc(-c2ccc3ncnc(Nc4ccc(OCc5cccc(F)c5)c(Cl)c4)c3c2)o1 [Compound 98, (S)—N-(4-(3-fluorobenzyl-oxy)-3-chlorophenyl)-6-(5-(1-(N,N-diethyl-amino)-2-(methyl-sulfonyl)ethyl)furan-2-yl)quinazolin-4-amine]
0.759 | 5.92 |  |  | CCCN(CCC)[C@H](CS(C)(=O)=O)c1ccc(-c2ccc3ncnc(Nc4ccc(OCc5cccc(F)c5)c(Cl)c4)c3c2)o1 [Compound 99, (S)—N-(4-(3-fluorobenzyl-oxy)-3-chlorophenyl)-6-(5-(1-(N,N-dipropyl-amino)-2-(methylsulfonyl)ethyl)furan-2-yl)quinazolin-4-amine]
0.489 | 9.9 |  |  | CCN(C)[C@H](CS(C)(=O)=O)c1ccc(-c2ccc3ncnc(Nc4ccc(OCc5cccc(F)c5)c(Cl)c4)c3c2)o1 [Compound 100, (S)—N-(4-(3-fluorobenzyl-oxy)-3-chlorophenyl)-6-(5-(1-(N-methyl, N-ethyl-amino)-2-(methylsulfonyl)ethyl)furan-2-yl)quinazolin-4-amine]
0.588 | 10.4 |  |  | C=CCN[C@H](CS(C)(=O)=O)c1ccc(-c2ccc3ncnc(Nc4ccc(OCc5cccc(F)c5)c(Cl)c4)c3c2)o1 [Compound 101, (S)—N-(4-(3-fluorobenzyl-oxy)-3-chlorophenyl)-6-(5-(1-(allyl-amino)-2-(methylsulfonyl)ethyl)furan-2-yl)quinazolin-4-amine]
0.457 | 8.9 |  |  | C#CCN[C@H](CS(C)(=O)=O)c1ccc(-c2ccc3ncnc(Nc4ccc(OCc5cccc(F)c5)c(Cl)c4)c3c2)o1 [Compound 102, (S)—N-(4-(3-fluorobenzyl-oxy)-3-chlorophenyl)-6-(5-(1-(propargyl-amino)-2-(methylsulfonyl)ethyl)furan-2-yl)quinazolin-4-amine]
 |  | 0.479 | 8.82 | CON[C@H](CS(C)(=O)=O)c1ccc(-c2ccc3ncnc(Nc4ccc(OCc5cccc(F)c5)c(Cl)c4)c3c2)o1 [Compound 103]
 |  | 0.632 | 9 | CON(C)[C@H](CS(C)(=O)=O)c1ccc(-c2ccc3ncnc(Nc4ccc(OCc5cccc(F)c5)c(Cl)c4)c3c2)o1 [Compound 104]
0.664 | 7.87 |  |  | CS(=O)(=O)C[C@H](N)c1ccc(-c2ccc3ncnc(Nc4ccc(OCc5cccc(F)c5)c(Cl)c4)c3c2)o1 [Compound 105, (R)—N-(4-(3-fluorobenzyl-oxy)-3-chlorophenyl)-6-(5-(1-(amino)-2-(methylsulfonyl)ethyl)furan-2-yl)quinazolin-4-amine]
0.469 | 7.8 |  |  | CN[C@@H](CS(C)(=O)=O)c1ccc(-c2ccc3ncnc(Nc4ccc(OCc5cccc(F)c5)c(Cl)c4)c3c2)o1 [Compound 106, (R)—N-(4-(3-fluorobenzyl-oxy)-3-chlorophenyl)-6-(5-(1-(methylamino)-2-(methylsulfonyl)ethyl)furan-2-yl)quinazolin-4-amine]
0.578 | 6.77 |  |  | CCN[C@@H](CS(C)(=O)=O)c1ccc(-c2ccc3ncnc(Nc4ccc(OCc5cccc(F)c5)c(Cl)c4)c3c2)o1 [Compound 107, (R)—N-(4-(3-fluorobenzyl-oxy)-3-chlorophenyl)-6-(5-(1-(ethylamino)-2-(methylsulfonyl)ethyl)furan-2-yl)quinazolin-4-amine]
0.529 | 5.9 |  |  | CCCN[C@@H](CS(C)(=O)=O)c1ccc(-c2ccc3ncnc(Nc4ccc(OCc5cccc(F)c5)c(Cl)c4)c3c2)o1 [Compound 108, (R)—N-(4-(3-fluorobenzyl-oxy)-3-chlorophenyl)-6-(5-(1-(propylamino)-2-(methylsulfonyl)ethyl)furan-2-yl)quinazolin-4-amine]
0.756 | 6.21 |  |  | CS(=O)(=O)C[C@H](NCC1CC1)c1ccc(-c2ccc3ncnc(Nc4ccc(OCc5cccc(F)c5)c(Cl)c4)c3c2)o1 [Compound 109, (R)—N-(4-(3-fluorobenzyl-oxy)-3-chlorophenyl)-6-(5-(1-(cyclopropylmethyl-amino)-2-(methylsulfonyl)ethyl)furan-2-yl)quinazolin-4-amine]
0.699 | 6.82 |  |  | CCN(CC)[C@@H](CS(C)(=O)=O)c1ccc(-c2ccc3ncnc(Nc4ccc(OCc5cccc(F)c5)c(Cl)c4)c3c2)o1 [Compound 111, (R)—N-(4-(3-fluorobenzyl-oxy)-3-chlorophenyl)-6-(5-(1-(N,N-diethyl-amino)-2-(methylsulfonyl)ethyl)furan-2-yl)quinazolin-4-amine]
0.855 | 6.22 |  |  | CCCN(CCC)[C@@H](CS(C)(=O)=O)c1ccc(-c2ccc3ncnc(Nc4ccc(OCc5cccc(F)c5)c(Cl)c4)c3c2)o1 [Compound 112, (R)—N-(4-(3-fluorobenzyl-oxy)-3-chlorophenyl)-6-(5-(1-(N,N-dipropyl-amino)-2-(methylsulfonyl)ethyl)furan-2-yl)quinazolin-4-amine]
0.758 | 7.07 |  |  | CCN(C)[C@@H](CS(C)(=O)=O)c1ccc(-c2ccc3ncnc(Nc4ccc(OCc5cccc(F)c5)c(Cl)c4)c3c2)o1 [Compound 113, (R)—N-(4-(3-fluorobenzyloxy)-3-chlorophenyl)-6-(5-(1-(N-methyl, N-ethyl-amino)-2-(methylsulfonyl)ethyl)furan-2-yl)quinazolin-4-amine]
0.489 | 7.9 |  |  | C=CCN[C@@H](CS(C)(=O)=O)c1ccc(-c2ccc3ncnc(Nc4ccc(OCc5cccc(F)c5)c(Cl)c4)c3c2)o1 [Compound 114, (R)—N-(4-(3-fluorobenzyl-oxy)-3-chlorophenyl)-6-(5-(1-(allyl-amino)-2-(methylsulfonyl)ethyl)furan-2-yl)quinazolin-4-amine]
0.536 | 7.58 |  |  | C#CCN[C@@H](CS(C)(=O)=O)c1ccc(-c2ccc3ncnc(Nc4ccc(OCc5cccc(F)c5)c(Cl)c4)c3c2)o1 [Compound 115, (R)—N-(4-(3-fluorobenzyl-oxy)-3-chlorophenyl)-6-(5-(1-(propargyl-amino)-2-(methylsulfonyl)ethyl)furan-2-yl)quinazolin-4-amine]
 |  | 0.441 | 4.8 | CON[C@@H](CS(C)(=O)=O)c1ccc(-c2ccc3ncnc(Nc4ccc(OCc5cccc(F)c5)c(Cl)c4)c3c2)o1 [Compound 116]
 |  | 0.636 | 7.63 | CON(C)[C@@H](CS(C)(=O)=O)c1ccc(-c2ccc3ncnc(Nc4ccc(OCc5cccc(F)c5)c(Cl)c4)c3c2)o1 [Compound 117]
0.525 | 6.69 |  |  | CS(=O)(=O)C[C@H](N)c1cnc(-c2ccc3ncnc(Nc4ccc(OCc5cccc(F)c5)c(Cl)c4)c3c2)s1 [Compound 118, (S)—N-(4-(3-fluorobenzyl-oxy)-3-chlorophenyl)-6-(5-(1-(amino)-2-(methylsulfonyl)ethyl)thiazole-2-yl)quinazolin-4-amine]
 |  | 0.588 | 6.12 | CN[C@@H](CS(C)(=O)=O)c1cnc(-c2ccc3ncnc(Nc4ccc(OCc5cccc(F)c5)c(Cl)c4)c3c2)s1 [Compound 119]
 |  | 0.658 | 7.56 | CCN[C@@H](CS(C)(=O)=O)c1cnc(-c2ccc3ncnc(Nc4ccc(OCc5cccc(F)c5)c(Cl)c4)c3c2)s1 [Compound 120]
 |  | 0.465 | 6.39 | CCCN[C@@H](CS(C)(=O)=O)c1cnc(-c2ccc3ncnc(Nc4ccc(OCc5cccc(F)c5)c(Cl)c4)c3c2)s1 [Compound 121]
 |  | 0.499 | 6.33 | CN(C)[C@@H](CS(C)(=O)=O)c1cnc(-c2ccc3ncnc(Nc4ccc(OCc5cccc(F)c5)c(Cl)c4)c3c2)s1 [Compound 123]
 |  | 0.685 | 7.98 | CCN(CC)[C@@H](CS(C)(=O)=O)c1cnc(-c2ccc3ncnc(Nc4ccc(OCc5cccc(F)c5)c(Cl)c4)c3c2)s1 [Compound 124]
